Reference: patent US20090270447A1, “2-Aryl-and 2-Heteroarylthiazolyl Compounds, Methods for Their Preparation and Use Thereof” (Wyeth, priority 2008, published 2009)

Tests used:
[1] = tested on: HCT116 cells (Securin+/+, securin parental cell line HCT116 FB); test: Growth inhibition of securin parental cells (SRB, 5 days); type: cell-based; settings: Homo sapiens, HCT-116, 120 h
Procedure: (§1) IC50 analysis was performed for selected fused heterobicyclic 2-aryl or 2-heteroarylthiazolyl compounds that were tested on HCT116 cells and Securin “knock out” cell lines.
(§2) Cell Culture—HCT116 and securin “knock out” cells. HCT116 and securin “knock out” cells (D8 and F3) were grown in RPMI+5% fetal bovine serum and gentamycin. They were maintained in a humidified 37° C. incubator with 5% CO2. Since the securin “knock out” cells have active chromosomal instability, cells were used at a low passage number of 2-13 passages. At or before passage 13 a new vial of cells was thawed and used for the screen. Cell seeding—HCT116 cells and securin “knock out” cells were trypsinized and suspenended in RPMI+5% FBS at a density of 27,000 cells/mL. HCT116 and securin “knock out” cells were seeded separately in wells of a 96-well plate (Falcon Cat # 35-3872) at a cell density of 4000 cells per well. Cells were seeded in 150 μL of RPMI media containing 5% FBS and gentamycin. Cell seeding was performed under aseptic conditions. Cells were allowed to attach and grow overnight in a humidified 37° C. incubator.
(§3) Compound Dilution and Dispensation. A series of stock solutions, 10 mg/ml of 2-aryl- or 2-heteroarylthiazolyl compounds to be tested, were brought to room temperature. The compounds were diluted 1:50 in RPMI+5% FBS (Highest concentration 200 μg/mL). The compounds were then serially diluted 1:3 across a deep-well titration plate resulting in final concentrations in the plate of 200, 66.7, 22.2, 7.4, 2.4, 0.8 0.27, 0.091, 0.03, 0.01, and 0.0034 μg/mL with one well left without a compound. 50 μL of this dilution series was added to the 150 μL of cells to result in a final concentration of compound in with the cells of 50, 16.6, 5.5, 1.8, 0.6, 0.2, 0.068, 0.023, 0.0076, 0.0025, and 0.00084 μg/mL. The dilution and addition of compounds to the plates is performed using a Multimek 96 Robot (Beckman Coulter).
(§4) Incubation and analysis. After dosing, the cells in the 96 well plates were returned to the humidified 37° C. incubator. The compounds remained on the cells for 5 days. After 5 days, the cells were fixed to the plates with the addition of 50 μL of 50% (vol/vol) Trichloro Acetic Acid ([…]). The cells were fixed at 4° C. for 1 hour. The plates were washed 5 times in distilled water and allowed to dry. The cells were stained with 0.4% sulforhodamine B (Sigma) in 1% acetic acid. The cells were stained for 15 minutes at room temperature. The plates were then washed 3 times in 1% acetic acid. The plates were dried and the dye was solubilized in 10 mM Tris at pH 8.0. The plates were read on the Absorbence 560 setting on a Victor^2 V Model 1420 Multilabel HTS counter (Perkin Elmer).
(§5) Analysis of Results—IC50 data. Absorbence data was read off of the Victor and was converted to a percentage of the control (untreated) values. IC50 values were graphed and the point at which a 50% inhibition of the control level was determined. […] If the model was not able to determine an IC50, the IC50 was assigned to the lowest concentration that gives a 50% or greater decrease in absorbence compared to control levels. If the calculated IC50 value for a cell line exceeds the top concentration for the assay (typically 50 μg/mL), the assay was scored as >50.

[2] = tested on: securin "knock out" cells D8 (Securin−/−); test: Growth inhibition of securin knock out cells D8 (SRB, 5 days); type: cell-based; settings: for IC50: 120 h, securin knock out D8 cells, 5 days, SRB; for Selectivity Ratio D8: IC50 HCT116 / IC50 securin KO D8
Procedure: as §1, §2, §3, §4, §5
(§6) Selectivity Ratio. The Selectivity Ratio is the ratio of IC50s between the parent cell line and the knock out cell line and is always a positive number and is typically an integer.

[3] = tested on: securin "knock out" cells F3 (Securin−/−); test: Growth inhibition of securin knock out cells F3 (SRB, 5 days); type: cell-based; settings: for IC50: 120 h, securin knock out F3 cells, 5 days, SRB; for Selectivity Ratio F3: IC50 HCT116 / IC50 securin KO F3
Procedure: as §1, §2, §3, §4, §5, §6

[4] = tested on: xenografts of a human breast carcinoma cell line (MDA-MB-361); test: In-vivo activity in tumor xenografts
Procedure: Selected fused heterobicyclic 2-aryl- or 2-heteroarylthiazolyl compounds of formula I were tested for their activity in a securin parental cell line (HCT116 FB) and a securin knockout (KO) cell line. […] The in-vivo activity of selected fused heterobicyclic 2-arylarylthiazolyl compounds of formula I was studied in cells growing as xenografts in athymic (nude) mice. The effect of Examples 5-7 and 10 was studied in xenografts of a human breast carcinoma cell line (MDA-MB-361).
In-vivo Activity in Tumor Xenografts. The effectiveness of Examples 5-7 versus Vincristine at controlling tumor growth was studied and the results are summarized in Table 2 and FIG. 1. The 2-arylthiazolyl compounds were formulated 0.5% Methocel™ (methylcellulose) and 0.4% Tween 80™ (polysorbate-80 and oleic acid) and administered daily orally (PO), by gavage or intraperiotenially (IP) by syringe. Tumor mass [(length×width^2)/2] was determined every 7 days. Inhibition of tumor growth was calculated relative to conventional (vehicle treated) controls.

[5] = 20 mg/kg/dose PO, days 1 through 20
[6] = 50 mg/kg/dose PO, days 1 through 20
[7] = 0.8 mg/kg/dose IP, days 1, 5 and 9

SMILES	IC50 [1] [µM]	IC50 [2] [µM]	Selectivity Ratio D8 [2]	IC50 [3] [µM]	Selectivity Ratio F3 [3]	also measured
CN(C)c1ccc(-c2nc3c(s2)C(O)CNC3)cc1 (racemic) [Example 2, 2-(4-dimethylamino-phenyl)-4,5,6,7-tetrahydro[1,3]thiazolo[4,5-c]pyridin-7-ol]	86.4	0.931	93	1.28	68	–
OCc1cc(N2CCCC2)ccc1-c1nc2c(s1)C(O)CNC2 (racemic) [Example 10, (7R,7S)-2-(2-hydroxymethyl-4-pyrrolidin-1-yl-phenyl)-4,5,6,7-tetrahydro[1,3]thiazolo[4,5-c]pyridin-7-ol]	80.6	0.0808	998	0.0944	854	selectivity ratio (IC50 HCT116 FB/IC50 securin KO), in words [2]: high selectivity ratio
OC1CCCc2nc(-c3ccc(N4CCCC4)cc3)sc21 (centres unmarked) [2-(4-pyrrolidiny-1-ylphenyl)-4,5,6,7-tetrahydro-1,3-benzothiazol-7-ol, reference compound]	–	–	–	–	–	S/T = # of Survivors/# of Treated on Day +21 post tumor staging [4, 5]: 10/10; % T/C Day 7 [4, 5]: 101%; Relative Tumor Growth Day 7 [4, 5]: 1.67; % T/C Day 14 [4, 5]: 109%; Relative Tumor Growth Day 14 [4, 5]: 5.48; % T/C Day 21 [4, 5]: 132%; Relative Tumor Growth Day 21 [4, 5]: 12.07; S/T = # of Survivors/# of Treated on Day +21 post tumor staging [4, 6]: 10/10; % T/C Day 7 [4, 6]: 95%; Relative Tumor Growth Day 7 [4, 6]: 1.57; % T/C Day 14 [4, 6]: 78%; Relative Tumor Growth Day 14 [4, 6]: 3.93; % T/C Day 21 [4, 6]: 95%; Relative Tumor Growth Day 21 [4, 6]: 8.73
CN1Cc2nc(-c3ccc(N(C)C)cc3)sc2C(O)C1 (centres unmarked) [Example 1, 2-(4-dimethylamino-phenyl)-5-methyl-4,5,6,7-tetrahydro[1,3]thiazolo[4,5-c]pyridine-7-ol]	23.9	2.48	10	3.07	8	–
CN(C)c1ccc(-c2nc3c(s2)[C@H](O)CNC3)cc1 [Example 3, (R)-2-(4-dimethylamino-phenyl)-4,5,6,7-tetrahydro[1,3]thiazolo[4,5-c]pyridin-7-ol]	66.4	0.395	168	0.555	120	–
CN(C)c1ccc(-c2nc3c(s2)[C@@H](O)CNC3)cc1 [Example 4, (S)-2-(4-dimethylamino-phenyl)-4,5,6,7-tetrahydro[1,3]thiazolo[4,5-c]pyridin-7-ol]	169	2.19	77	3.39	50	–
CN(C)c1ccc(-c2nc3c(s2)C(O)CNC3)c(CO)c1 (centres unmarked) [Example 8, 2-(2-hydroxymethyl-4-dimethylamino-phenyl)-4,5,6,7-tetrahydro[1,3]thiazolo[4,5-c]pyridine-7-ol]	100	0.0989	1011	0.107	936	–
COC(=O)c1cc(N(C)C)ccc1-c1nc2c(s1)C(O)CNC2 (centres unmarked) [Example 9, methyl 5-(dimethylamino)-2-(7-hydroxy-4,5,6,7-tetrahydro[1,3]thiazolo[4,5-c]pyridin-2-yl)benzoate]	100	0.53	189	0.67	149	–
OCc1cc(N2CCCC2)ccc1-c1nc2c(s1)[C@H](O)CNC2 [Example 11, (7R)-2-(2-hydroxymethyl-4-pyrrolidin-1-yl-phenyl)-4,5,6,7-tetrahydro[1,3]thiazolo[4,5-c]pyridin-7-ol]	91.4	0.0406	2251	0.0483	1892	–
COC(=O)c1cc(N2CCCC2)ccc1-c1nc2c(s1)C(O)CNC2 (centres unmarked) [Example 13, Methyl 5-(4-pyrrolidin-1-yl)-2-(7-hydroxy-4,5,6,7-tetrahydro[1,3]thiazolo[4,5-c]pyridin-2-yl)benzoate]	59.2	0.342	173	0.516	115	–
Nc1cc(N2CCCC2)ccc1-c1nc2c(s1)C(O)CNC2 (centres unmarked) [Example 14, 2-(2-amino-4-pyrrolidin-1-yl-phenyl)-4,5,6,7-tetrahydro[1,3]thiazolo[4,5-c]pyridin-7-ol]	48.1	0.0379	1269	0.0486	990	–
O=[N+]([O-])c1cc(N2CCCC2)ccc1-c1nc2c(s1)C(O)CNC2 (centres unmarked) [Example 15, 2-(2-nitro-4-pyrrolidin-1-yl-phenyl)-4,5,6,7-tetrahydro[1,3]thiazolo[4,5-c]pyridin-7-ol]	28.4	2.95	10	4.6	6	–
CN(C)c1ccc(-c2nc3c(s2)C(O)COC3)cc1Br (centres unmarked) [Example 16, 2-[3-bromo-4-(dimethylamino)phenyl]-6,7-dihydro-4H-pyrano[3,4-d][1,3]thiazol-7-ol]	41.6	14.3	3	15.2	3	–
CN(C)c1ccc(-c2nc3c(s2)C(O)COC3)cc1 (centres unmarked) [Example 17, 2-[4-(dimethylamino)phenyl]-6,7-dihydro-4H-pyrano[3,4-d][1,3]thiazol-7-ol]	51.1	1.12	46	1.53	33	–
CC[C@]1(O)C[C@H]2CN(CCc3c([nH]c4ccccc34)[C@@](C(=O)OC)(c3cc4c(cc3OC)N(C=O)[C@H]3[C@@](O)(C(=O)OC)[C@H](OC(C)=O)[C@]5(CC)C=CCN6CC[C@]43[C@@H]65)C2)C1 [Vincristine, reference compound]	–	–	–	–	–	% T/C Day 7 [4, 7]: 80%; Relative Tumor Growth Day 7 [4, 7]: 1.33; % T/C Day 14 [4, 7]: 43%; Relative Tumor Growth Day 14 [4, 7]: 2.14; % T/C Day 21 [4, 7]: 58%; Relative Tumor Growth Day 21 [4, 7]: 5.29
